We go through 14 compounds from publication PMC8508960, “Ruthenium Half-Sandwich Type Complexes with Bidentate Monosaccharide Ligands Show Antineoplastic Activity in Ovarian Cancer Cell Models through Reactive Oxygen Species Production” (International Journal of Molecular Sciences, 2021).

In series [1] the test system is A2780 human ovarian carcinoma cells. Description: SRB proliferation assay (48 h) on A2780 cells. It counts as cell-based. The conditions noted are these: for cytostatic activity in long-term SRB assay (in words): A2780 cells, 100–0.0017 µM; for A2780 Hill Slope / pIC50: SRB, nonlinear regression, N/A = could not be calculated/had no effect. How it is done:
(§1) Cells were cultured under standard cell culture conditions, 37 °C, 5% CO2, humidified atmosphere. A2780 cells were cultured in RMPI 1640 medium supplemented with 10% fetal calf serum, 2 mM glutamine, and 1% penicillin–streptomycin (Sigma-Aldrich). ID8 cells were cultured in high-glucose DMEM (4.5 g/L glucose) supplemented with 4% fetal calf serum, 2 mM glutamine, 1% penicillin–streptomycin (Sigma-Aldrich), and 1% ITS supplement (Sigma-Aldrich I3146). U251 cells were maintained in MEM (Sigma-Aldrich), 10% fetal bovine serum (Sigma-Aldrich), 1% penicillin/streptomycin (Invitrogene), and 2 mM glutamine. MCF7 cells were maintained in MEM (Sigma-Aldrich), 10% fetal bovine serum (Sigma-Aldrich), 1% penicillin/streptomycin (Invitrogen, Waltham, MA, USA), and 2 mM glutamine. Capan2 cells were maintained in MEM (Sigma-Aldrich), 10% fetal bovine serum (Sigma-Aldrich), 1% penicillin/streptomycin (Invitrogen), and 2 mM glutamine. Human primary dermal fibroblasts were cultured in low-glucose DMEM (1 g/L glucose) supplemented with 20% fetal calf serum, 2 mM glutamine, and 1% penicillin–streptomycin (Sigma-Aldrich).
(§2) The SRB accumulation assay assesses protein content in a sample, and it was used to assess cell proliferation. The SRB accumulation assay was performed similarly to [68]. Cells were seeded in 96-well plates. The next day, cells were treated with the compounds for 48 h in the concentrations indicated in a cell incubator. At the end of treatment, cells were fixed with 10% trichloroacetic acid (TCA). Fixed cells were stained with SRB (0.4% m/v dissolved in 1% acetic acid) for 60 min. Fixed cells were washed in 1% acetic acid three times; acetic acid was removed, and cells were left to dry. Protein-bound SRB was released by adding 100 µL of 10 mM Tris base. Plates were measured in a plate photometer (Thermo Scientific Multiscan GO spectrophotometer, Waltham, MA, USA) at 540 nm. On each plate, wells were designed to contain untreated cells. In calculations, the readings for these wells were considered as 1, and all readings were expressed relative to these values.
(§3) Statistical analysis was performed using Graphpad Prism version 8.0.1. Values were tested for normal distribution using the D’Agostino and Pearson normality test. When necessary, values were log-normalized or were normalized using the Box–Cox normalization method, as indicated in the figure captions. Nonlinear regression was performed using the built-in “[Inhibitor] vs. response—variable slope (four parameters), least square fit” utility of Graphpad that yielded IC50 and Hill slope values.

Series [2] relates to ID8 cells. The series is described as follows: SRB proliferation assay (48 h) on ID8 cells. The conditions noted are these: for ID8 Hill Slope / pIC50: SRB, nonlinear regression, N/A = could not be calculated/had no effect; for cytostatic activity in long-term SRB assay (in words): ID8 cells. Format: cell-based. How it is done: as §1, §2, §3
Series [3] deals with human primary skin fibroblasts. The series is described as follows: SRB proliferation assay (48 h) on primary fibroblasts. It counts as cell-based. How it is done:
as §1, §2, §3

Series [4] has as its system A2780 human ovarian carcinoma cells. The series is described as follows: MTT reduction assay (4 h, rapid toxicity) on A2780 cells. It counts as cell-based. How it is done:
as §1
The MTT reduction assay assesses the activity of mitochondrial complex I, and it was used to assess rapid toxicity. The MTT reduction assay was performed similarly to [67]. Cells were seeded in 96-well plates. The next day, cells were treated with the compounds for 4 h in the concentrations indicated in a cell incubator. At the end of treatment, MTT was added in 0.5 mg/mL final concentration, and cells were incubated at 37 °C in a cell incubator. Then, culture media was removed, the reduced MTT dye was resolved in dimethyl sulfoxide (DMSO), and plates were measured in a plate photometer (Thermo Scientific Multiscan GO spectrophotometer, Waltham, MA, USA) at 540 nm. On each plate, wells were designed to contain untreated/vehicle-treated cells. In calculations, the readings for these wells were considered as 1, and all readings were expressed relative to these values.

In series [5] the test system is A2780 cells. Description: SRB assay on A2780 cells with or without 3 µM rucaparib. The conditions noted are these: 48 h, 3 µM. It counts as cell-based, human. How it is done: as §2, §3
Background: In SRB staining, fixed cells bind dye roughly in proportion to their protein.

The mark [6] stands for this setting: SRB, nonlinear regression, N/A = could not be calculated/had no effect.

pIC50: −log10 of the molar value. Where “and” joins values, the source holds several entries; their conditions need not be identical. Equal values may be shown once. Entries after “also recorded” stand apart in the source; their conditions may differ.

`CC(=O)OCC1OC(c2n[n+]3c(o2)-c2cccc[n+]2[Ru-]3[Cl])C(OC(C)=O)C(OC(C)=O)C1OC(C)=O.Cc1ccc(C(C)C)cc1.F[P-](F)(F)(F)(F)F` (mixture of isomers) [Ru-5]: the “cytostatic activity in long-term SRB assay (in words)” value (shortened to “cytostatic activity”) in series [1] is given as “abrogated the inhibitory activity”.

Take `Cc1ccc(C(C)C)cc1.F[P-](F)(F)(F)(F)F.OCC1OC(c2nnc(-c3ccccn3)o2)C(O)C(O)C1O.[Cl][Ru+]` (mixture of isomers) [Ru-10]: the “cytostatic activity” value in series [1] was “abrogated the inhibitory activity”.

By pIC50 is commonly meant the IC50 on a negative log10 scale, so that one unit is a factor of ten. `N.N.O=C([O-])C1(C(=O)[O-])CCC1.[Pt+2]` [Carboplatin, carboplatin, reference compound]: the “ID8 Hill Slope” value in series [2] is listed as 0.62. For the same compound, in series [1], the “A2780 Hill Slope” value is recorded as 1.02 and the pIC50 is 4.55. For the same compound, in series [3] (primary human fibroblasts), the “effect in long-term SRB assay (in words)” value was “no effect”.

With `N.N.[Cl][Pt][Cl]` [Cisplatin, cisplatin, reference compound], in series [2], the negative-log IC50 (pIC50) is 4.97 and the “ID8 Hill Slope” value is on record as 0.99. In series [1], the “A2780 Hill Slope” value is 1.20 and the pIC50 is 5.92. Moreover, in series [3] (setting [6]), the “Fibroblast Hill Slope” value is 1.53. Moreover, in series [3] (SRB, nonlinear regression, N/A = could not be calculated/had no effect, read-out: Fibroblast IC50), the pIC50 was 4.92. The “effect in SRB assay above 10 µM” value in series [3] (primary human fibroblasts, above 10 µM) is given as “cytostatic”.

With `O=C(OC[C@H]1O[C@@H](n2cc(-c3ccccn3)nn2)[C@H](OC(=O)c2ccccc2)[C@@H](OC(=O)c2ccccc2)[C@@H]1OC(=O)c1ccccc1)c1ccccc1` [Complex L-2a, 1-(2′,3′,4′,6′-Tetra-O-benzoyl-β-D-glucopyranosyl)-4-(pyridin-2-yl)-1,2,3-triazole], the “cytostatic activity” value was “none of the corresponding ligands (L-2a, L-4, L-6, and L-8) had cytostatic properties” in series [2]; “no biological activity; also recorded: none of the corresponding ligands (L-2a, L-4, L-6, and L-8) had cytostatic properties” in series [1]. Moreover, the “effect in short-term MTT assay, rapid toxicity (in words)” value (“effect in short-term MTT assay” below) in series [4] is “no biological activity”. The “effect in long-term SRB assay (in words)” value in series [3] (primary human fibroblasts) was “no effect”.

Turning to `O=C(OC[C@H]1O[C@@H](c2nnc(-c3ccccn3)o2)[C@H](OC(=O)c2ccccc2)[C@@H](OC(=O)c2ccccc2)[C@@H]1OC(=O)c1ccccc1)c1ccccc1` [Complex L-4, 2-(2′,3′,4′,6′-Tetra-O-benzoyl-β-D-glucopyranosyl)-5-(pyridin-2-yl)-1,3,4-oxadiazole], the “cytostatic activity” value in series [2] is “none of the corresponding ligands (L-2a, L-4, L-6, and L-8) had cytostatic properties”; in series [1], “no biological activity; also recorded: none of the corresponding ligands (L-2a, L-4, L-6, and L-8) had cytostatic properties”. Also, in series [4], the “effect in short-term MTT assay” value is “no biological activity”. In addition, the “effect in long-term SRB assay (in words)” value in series [3] (primary human fibroblasts) is on record as “no effect”.

As to `O=C(O[C@@H]1[C@@H](OC(=O)c2ccccc2)[C@H](c2nnc(-c3ccccn3)o2)OC[C@H]1OC(=O)c1ccccc1)c1ccccc1` [Complex L-6, 2-(2′,3′,4′-Tri-O-benzoyl-β-D-xylopyranosyl)-5-(pyridin-2-yl)-1,3,4-oxadiazole], the “cytostatic activity” value was “none of the corresponding ligands (L-2a, L-4, L-6, and L-8) had cytostatic properties” in series [2]; “no biological activity; also recorded: none of the corresponding ligands (L-2a, L-4, L-6, and L-8) had cytostatic properties” in series [1]. In addition, the “effect in short-term MTT assay” value in series [4] was “no biological activity”. Moreover, the “effect in long-term SRB assay (in words)” value in series [3] (primary human fibroblasts) is “no effect”.

For `O=C(OC[C@H]1O[C@@H](c2nnc(-c3ccccn3)o2)[C@H](OC(=O)c2ccccc2)[C@@H](OC(=O)c2ccccc2)[C@H]1OC(=O)c1ccccc1)c1ccccc1` [Complex L-8, 2-(2′,3′,4′,6′-Tetra-O-benzoyl-β-D-galactopyranosyl)-5-(pyridin-2-yl)-1,3,4-oxadiazole], the “cytostatic activity” value in series [2] was “none of the corresponding ligands (L-2a, L-4, L-6, and L-8) had cytostatic properties”; in series [1], “no biological activity; also recorded: none of the corresponding ligands (L-2a, L-4, L-6, and L-8) had cytostatic properties”. For the same compound, the “effect in short-term MTT assay” value in series [4] is given as “no biological activity”. In addition, the “effect in long-term SRB assay (in words)” value in series [3] (primary human fibroblasts) is listed as “no effect”.

As to `c1ccc(-n2cc(-c3ccccn3)nn2)cc1` [Complex L-13, 1-phenyl-4-(pyridine-2-yl)-1,2,3-triazole], the “cytostatic activity” value in series [1] is reported as “Neither of the free ligands, L-13 or L-14, had cytostatic activity”.

With `c1ccc(-c2nnc(-c3ccccn3)o2)cc1` [Complex L-14, 2-phenyl-5-(pyridine-2-yl)-1,3,4-oxadiazole], in series [1], the “cytostatic activity” value is on record as “Neither of the free ligands, L-13 or L-14, had cytostatic activity”.

In the case of `O=C1[O][Pt]2([NH][C@@H]3CCCC[C@H]3[NH]2)[O]C1=O` [Oxaliplatin, oxaliplatin, reference compound], in series [2], the negative logarithm of the IC50 (pIC50) is 5.34 and the “ID8 Hill Slope” value was 1.58. Moreover, in series [1], the “A2780 Hill Slope” value was 1.27 and the pIC50 was 6.92. For the same compound, the “Fibroblast Hill Slope” value in series [3] (setting [6]) is reported as 0.37. Further, the “effect in long-term SRB assay (in words)” value in series [3] (primary human fibroblasts) is recorded as “no effect”.

On to `Cc1ccc(C(C)C)cc1.F[P-](F)(F)(F)(F)F.[Cl][Ru+].c1ccc(-n2cc(-c3ccccn3)nn2)cc1` [Ru-13], for which, in series [1], the “cytostatic activity” value was “lowered the cytostatic capacity”; the “A2780 Hill Slope” value is 1.5 and 1.57; the pIC50 is 4.92.

Take `Cc1ccc(C(C)C)cc1.F[P-](F)(F)(F)(F)F.[Cl][Ru+].c1ccc(-c2nnc(-c3ccccn3)o2)cc1` [Ru-14]: in series [1], the “cytostatic activity” value is on record as “no cytostatic activity; also recorded: fully abrogated it” and the “A2780 Hill Slope” value is listed as 0.77.

For `CNCc1ccc(-c2[nH]c3cc(F)cc4c3c2CCNC4=O)cc1` [Rucaparib, rucaparib, reference compound], the “cell proliferation (in words)” value in series [5] is on record as “reduced cell proliferation”.
